Usually Kd stands for the equilibrium constant for the complex coming apart.

This note sets out measurements from paper PMC8579695, “The Stringent Response Inhibits 70S Ribosome Formation in Staphylococcus aureus by Impeding GTPase-Ribosome Interactions” (mBio, 2021).

Experiment [1] deals with Era association to the 30S ribosomal subunit (Staphylococcus aureus, UniProt Q2FGF6). Description: In vitro ribosome association assay (sucrose gradient, α-His Western immunoblot), Era. In kind it is binding. The following applies: 40 μM nucleotide; compared to apo, GTP, or GMPPNP-bound states. The source says: It is well characterized that rRNA transcription decreases during the stringent response ([39]). In addition, the GTPase activity of ribosome assembly cofactors is inhibited by (p)ppGpp, both of which contribute to a reduction in mature ribosomes within the cell ([27]). To examine mechanistically how (p)ppGpp-GTPase interactions affect the ability of RA-GTPases to associate with ribosomal subunits, we examined the association of each GTPase to either the 30S or 50S ribosomal subunit in the presence of GDP, GTP, ppGpp, and pppGpp, as well as GMPPNP, a nonhydrolyzable analogue of GTP. The production and isolation of immature subunits, which can comprise several different immature states, introduces a large degree of heterogeneity, and so here we, and others, use homogenous mature particles as a system to examine the binding event, rather than the role of GTPase activity in downstream maturation ([11], [12], [29], [40], [41]). His-tagged GTPases were preincubated with highly pure, salt-washed 70S S. aureus ribosomes in a low-magnesium buffer to encourage ribosomal subunit dissociation, and the amount of each GTPase associated with each of the subunits was quantified by Western immunoblotting with anti-His antibodies after sucrose gradient separation. […]
Era association to the 30S ribosomal subunit, sequence (Q2FGF6 whole entry): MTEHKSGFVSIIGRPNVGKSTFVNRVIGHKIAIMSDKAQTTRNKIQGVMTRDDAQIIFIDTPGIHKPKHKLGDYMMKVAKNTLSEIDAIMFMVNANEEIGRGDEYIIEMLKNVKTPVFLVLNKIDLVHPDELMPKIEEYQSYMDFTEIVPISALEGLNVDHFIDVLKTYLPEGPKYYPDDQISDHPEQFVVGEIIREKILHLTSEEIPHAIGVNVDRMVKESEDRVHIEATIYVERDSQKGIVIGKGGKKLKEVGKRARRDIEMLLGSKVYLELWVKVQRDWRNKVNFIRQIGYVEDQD
FIG 2 (p)ppGpp and GDP binding reduces RA-GTPase association to the ribosome. […] After subunit separation and precipitation, bound proteins were detected in the 30S fraction using HRP-conjugated α-His antibodies. […] Bound proteins were detected in the 50S fraction using HRP-conjugated α-His antibodies. […]
A 500 nM concentration of recombinant 6×His-tagged RA-GTPase was incubated at room temperature for 5 min with 200 nM S. aureus 70S ribosomes in dissociation buffer (20 mM Tris [pH 7.5], 120 mM NH4Cl, 1.5 mM MgCl2, 2 mM β-mercaptoethanol) in the apo form and in the presence of 40 μM GTP, GMPPNP, GDP, ppGpp, or pppGpp. […] Gradients were fractionated by upward displacement of 250-μl aliquots, which were analyzed for RNA content at an absorbance of 260 nm. […]
A general note: Immunoblotting shows a protein as a band on a membrane.

Another experiment concerns the target RbgA (Staphylococcus aureus, UniProt A0A0H2XK72). As to the kind of experiment: DRaCALA binding of 32P-labeled nucleotides to 6×His-tagged RbgA. The following applies: for Bmax, RbgA: Bmax values indicate the fraction bound. The source says:
FIG 1 Nucleotide binding characteristics of RA-GTPases. (A) Schematic representation of the domain structure of Era, RsgA, RbgA, and HflX from S. aureus. The conserved GTPase domain (G domain) is colored in green, and accessory domains are shown. (B) Determination of binding affinities and Kd values for ^32P-labeled GTP, GDP, ppGpp, and pppGpp with purified recombinant 6×His-tagged RbgA using DRaCALA, as previously described ([36]). Each point is the mean average of at least three technical replicates, and error bars indicate standard deviations. (C) Binding assay (DRaCALA) of recombinant RbgA binding to ^32P-labeled GTP, ppGpp, and pppGpp in the presence of an excess of cold competitor (GTP, GDP, ppGpp, pppGpp, or ATP). All experiments were carried out in triplicate, with error bars representing standard deviations.
The RA-GTPases RsgA, Era, RbgA, and HflX can bind to the guanosine nucleotides GTP, GDP, ppGpp, and pppGpp. Our previous work observed higher binding affinities for ppGpp over GTP, pointing toward a difference in binding between 5′ di- or triphosphate nucleotides ([27]). […] Furthermore, these previous experiments were performed using recombinant proteins fused to large MBP tags, which could impact binding affinity determination. To examine the nucleotide binding affinities of these RA-GTPases for GDP in comparison to ppGpp, pppGpp, and GTP, and in the absence of a large tag, we used a differential radial capillary action of ligand assay (DRaCALA) with recombinant RsgA, RbgA, Era, and HflX fused to a smaller 6× His tag (Fig. 1B; see also Fig. S2A to C in the supplemental material) ([36]). In each case, the affinities of 5′ diphosphate-containing GDP and ppGpp were similar in the low μM range and were 2- to 6-fold higher than the affinities of either GTP or pppGpp (Table 1).
The synthesis of (p)ppGpp and differential radial capillary action of ligand assay (DRaCALA) binding and competition assays were performed as described previously ([27]), using recombinant, 6×His-tagged protein at the concentrations specified in the figure legends.

SMILES strings stand for the structures. Read-outs that look alike come from different tables or passages of the source.

RbgA, sequence (A0A0H2XK72 entry or part of it): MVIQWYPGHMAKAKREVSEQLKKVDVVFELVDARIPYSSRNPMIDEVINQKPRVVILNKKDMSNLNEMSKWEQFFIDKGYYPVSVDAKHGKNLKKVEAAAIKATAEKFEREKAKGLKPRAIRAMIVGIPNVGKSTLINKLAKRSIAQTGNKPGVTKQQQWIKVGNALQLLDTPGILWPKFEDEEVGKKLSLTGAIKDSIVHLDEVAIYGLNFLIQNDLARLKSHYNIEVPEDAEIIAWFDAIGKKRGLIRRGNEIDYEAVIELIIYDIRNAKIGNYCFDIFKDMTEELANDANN

As for `Nc1nc2c(ncn2[C@@H]2O[C@H](COP(=O)(O)OP(=O)(O)OP(=O)(O)O)[C@@H](OP(=O)(O)OP(=O)(O)O)[C@H]2O)c(=O)[nH]1` [pppGpp], the “reduction in ribosome binding of Era” value in experiment [1] was 2 fold. The compound also came in with a Kd on RbgA of 13.8 ± 4 µM. The “Bmax, RbgA” value on RbgA (mean ± SEM) turned out to be 0.4 ± 0.0.

With `Nc1nc2c(ncn2[C@@H]2O[C@H](COP(=O)(O)OP(=O)(O)O)[C@@H](OP(=O)(O)OP(=O)(O)O)[C@H]2O)c(=O)[nH]1` [ppGpp], the “reduction in ribosome binding of Era” value in experiment [1] worked out at 2 fold. For the same compound, the Kd at RbgA (mean ± SEM, 32P-labeled nucleotide, 6×His-tagged protein, read-out: Kd, RbgA) is 2.9 ± 0.4 µM. Besides, at RbgA (mean ± SEM), the “Bmax, RbgA” value is recorded as 0.6 ± 0.0.
